Reference: PMC3162996 (Journal of natural products, 2011)
Entries after “also recorded” stand apart in the source; their conditions may differ.

How the values were obtained:
[1] = test system: transcription factor AP-1; assay: AP-1 assay; assay type: cell-based; conditions: HEK293T AP-1 β-lactamase reporter; 1 h pre-incubation, then TPA, 18 h
[2] = Floridian collections of Lyngbya confervoides; ref [6],[7]; cited from earlier work

For Grassypeptolide F [compound 1], which “inhibitory activity against AP-1 (in words)” value [1] is on record?
The value was “moderately active; also recorded: moderate inhibitory activity”.

Which “cytotoxicity (in words)” value [2] does the source give for grassypeptolide C [compound 5] here?
The value was “cytotoxic”.

For Grassypeptolide G [compound 2], which “inhibitory activity against AP-1 (in words)” value [1] is on record?
Its value is “moderately active; also recorded: moderate inhibitory activity”.
